Data from patent US5532240A, “Condensed thiophene compound and pharmaceutical use thereof” (Yoshitomi Pharmaceutical Industries, Ltd., priority 1991, dated 1996).

What was measured:
[1] = tested on: conditioned avoidance response (CAR); conditions: administered with D2 antagonist; cited from earlier work
[2] = tested on: catalepsy induced by haloperidol; conditions: preclinical; cited from earlier work
[3] = tested on: ergometrine-induced head-twitches; assay: Anti-ergometrine action (head-twitch); format: in vivo, male ddY mice; conditions: Mus musculus; oral, 60 min before 20 mg/kg i.p. ergometrine maleate; head-twitch vanished, Probit
Method: Male ddY mice at 12 per group were used for the experiment. The test compound was orally administered to the mice, and 60 minutes later, 20 mg/kg of ergometrine maleate was intraperitoneally administered. The amount of the test compound necessary to vanish the head-twitch reaction for 10 minutes from immediately after the administration of ergometrine maleate was calculated as ED50 value by Probit method.

[4] = molecular target: T1, serotonin 1A (5-HT1A) receptor (Rattus norvegicus, UniProt P19327); assay: Affinity for serotonin 1A receptor (tritiated 8-OH-DPAT binding); set-up: species or system Wistar rats; conditions: rat hippocampus crude synaptosomes; [3H]8-OH-DPAT 0.2 nM; 37° C., 12 min
T1 construct: A crude synaptosome fraction was separated from hippocampus; from tissue; host or cells: hippocampus of 9-10 week-old Wistar rats, crude synaptosome fraction
T1 sequence (P19327 1-422): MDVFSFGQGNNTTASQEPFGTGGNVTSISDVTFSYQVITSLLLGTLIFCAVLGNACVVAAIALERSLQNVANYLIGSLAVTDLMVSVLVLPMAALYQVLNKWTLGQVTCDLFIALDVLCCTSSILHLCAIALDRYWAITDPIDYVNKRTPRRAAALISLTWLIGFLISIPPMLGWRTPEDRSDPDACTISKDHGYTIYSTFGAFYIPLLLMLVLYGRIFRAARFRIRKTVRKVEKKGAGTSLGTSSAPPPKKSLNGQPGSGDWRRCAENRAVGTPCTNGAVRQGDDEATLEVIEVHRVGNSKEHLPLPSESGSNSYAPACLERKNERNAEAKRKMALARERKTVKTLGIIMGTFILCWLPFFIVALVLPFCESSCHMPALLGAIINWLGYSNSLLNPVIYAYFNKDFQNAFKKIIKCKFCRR
Method: Affinity for serotonin 1A receptor
A specific binding of serotonin 1A (5-HT1A) receptor was tested according to the method described in J. Neurochem. 44, 1685 (1985).
(§1) A crude synaptosome fraction was separated from hippocampus of 9-10 week-old Wistar rats, and suspended in 50 mM Tris-HCl buffer (pH 7.4) containing 1 mM manganese chloride for the experiment. The test compound at several concentrations and tritiated 8-hydroxy-2-dipropyl-aminotetralin(8-OH-DPAT, final concentration 0.2 nM) were added to the synaptosome suspension, and each mixture was incubated at 37° C. for 12 minutes. After the incubation, the mixture was filtered with suction through Whatman GF/B (trade mark) glass filter. The filter was washed with 50 mM Tris-HCl buffer (pH 7.7), and the radioactivity of the filter was measured by a liquid scintillation counter. Non-specific binding was determined in the presence of 10^-5 M serotonin (5-HT). The concentration necessary for 50% inhibition (IC50) was determined on a graph, and inhibition constant (Ki value) was calculated.

dopamine 2 (D2) receptor = molecular target: T2, dopamine 2 (D2) receptor (Rattus norvegicus, UniProt P61169); assay: Affinity for dopamine 2 receptor (tritiated spiperone binding); set-up: species or system Wistar rats; conditions: rat corpus striatum synaptosomes; [3H]spiperone 0.2 nM; 37° C., 20 min
T2 construct: A synaptosome fraction was separated from corpus striatum; from tissue; host or cells: corpus striatum of 9-10 week-old Wistar rats, synaptosome fraction
Method: Affinity for dopamine 2 receptor
A specific binding of dopamine 2 (D2) receptor was tested according to the method described in Eur. J. Pharmacol. 46, 377 (1977).
A synaptosome fraction was separated from corpus striatum of 9-10 week-old Wistar rats, and suspended in 50 mM Tris-HCl buffer (pH 7.1) containing 120 mM sodium chloride, 5 mM potassium chloride, 2 mM calcium chloride, 1 mM magnesium chloride, 10 μM pargyline and 0.1% ascorbic acid for the experiment.
as §1, with “The” for “A crude synaptosome fraction was separated from hippocampus of 9-10 week-old Wistar rats, and suspended in 50 mM Tris-HCl buffer (pH 7.4) containing 1 mM manganese chloride for the experiment. The”, “spiperone (final” for “8-hydroxy-2-dipropyl-aminotetralin(8-OH-DPAT, final”, “20” for “12”, “10^-4” for “10^-5”, “(±)-sulpiride.” for “serotonin (5-HT).”

Acute toxicity = conditions: mouse, in vivo; oral, male ddY mice, observed 5 days; read-out: LD50 (50% lethal dose)
Description: Male ddY mice weighing 20-28 g were used at 10 per group. They were orally administered with the compound of Example 24 and observed for 5 days after the administration.

[5] = molecular target: T3, serotonin 2 (5-HT2) receptor (Rattus norvegicus, UniProt P14842); assay: Affinity for serotonin 2 receptor (tritiated ketanserin binding); set-up: species or system Wistar rats; conditions: rat hippocampus crude synaptosomes; [3H]ketanserin 0.2 nM; 37° C., 20 min
T3 construct: A crude synaptosome fraction was separated from hippocampus; from tissue; host or cells: hippocampus of 9-10 week-old Wistar rats, crude synaptosome fraction
Method: Affinity for serotonin 2 receptor
A specific binding of serotonin 2 (5-HT2) receptor was tested according to the method described in Mol. Pharmacol. 21, 301 (1981).
as §1, with “7.7)” for “7.4) containing 1 mM manganese chloride”, “concentration” for “concentrations”, “ketanserin (final” for “8-hydroxy-2-dipropyl-aminotetralin(8-OH-DPAT, final”, “20” for “12”, “mianserin.” for “serotonin (5-HT).”, “value )” for “value)”

[6] = tested on: apomorphine-induced hyperactivity; assay: Anti-apomorphine action (in mouse); format: in vivo, male dd mice; conditions: oral, 60 min before 0.5 mg/kg s.c. apomorphine hydrochloride, movement lowered by 50%
Method: Anti-apomorphine action (in mouse)
Male dd mice at 3 per group were used for the experiment. The test compound was orally administered to the mice, and 60 minutes later, 0.5 mg/kg of apomorphine hydrochloride was subcutaneously administered. the movement for 20 minutes from immediately after the administration of apomorphine hydrochloride was measured using Valimex (Columbus, USA). Each group was tested four times, and the amount of the test compound necessary to lower the movement by 50% than that of a control group was calculated from a graph and taken as ED50.

T3 sequence (P14842 whole entry): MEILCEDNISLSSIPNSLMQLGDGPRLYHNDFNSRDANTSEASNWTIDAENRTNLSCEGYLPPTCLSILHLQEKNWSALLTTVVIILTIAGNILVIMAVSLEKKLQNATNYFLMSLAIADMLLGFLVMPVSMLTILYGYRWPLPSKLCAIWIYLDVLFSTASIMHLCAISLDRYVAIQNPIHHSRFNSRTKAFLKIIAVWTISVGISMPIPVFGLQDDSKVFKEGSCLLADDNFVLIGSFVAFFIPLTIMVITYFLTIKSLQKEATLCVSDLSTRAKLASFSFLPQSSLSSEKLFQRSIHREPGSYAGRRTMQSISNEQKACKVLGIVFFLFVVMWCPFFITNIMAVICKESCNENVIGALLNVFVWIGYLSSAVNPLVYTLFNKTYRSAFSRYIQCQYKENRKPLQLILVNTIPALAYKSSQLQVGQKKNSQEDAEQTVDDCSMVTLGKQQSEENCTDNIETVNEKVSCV
T2 sequence (P61169 whole entry): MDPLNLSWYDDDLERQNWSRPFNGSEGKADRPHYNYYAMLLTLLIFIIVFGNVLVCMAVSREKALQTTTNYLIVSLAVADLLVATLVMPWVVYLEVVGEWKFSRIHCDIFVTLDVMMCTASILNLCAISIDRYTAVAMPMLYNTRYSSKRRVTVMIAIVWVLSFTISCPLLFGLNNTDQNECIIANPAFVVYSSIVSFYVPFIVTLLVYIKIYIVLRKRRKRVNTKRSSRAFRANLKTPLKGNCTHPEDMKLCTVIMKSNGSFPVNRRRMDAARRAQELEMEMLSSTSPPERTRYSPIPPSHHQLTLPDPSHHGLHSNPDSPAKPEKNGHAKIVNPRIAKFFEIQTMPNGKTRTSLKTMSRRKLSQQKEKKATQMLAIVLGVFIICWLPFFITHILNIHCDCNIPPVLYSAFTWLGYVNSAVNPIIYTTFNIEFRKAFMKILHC

| SMILES | inhibition of conditioned avoidance response (CAR) [1] | effect on catalepsy induced by haloperidol [2] | ED50 [3] [mg/kg] | Ki [4] [pM] | Ki (dopamine 2 (D2) receptor) [pM] | LD50 at 120 h (Acute toxicity) [mg/kg] | Ki [5] [pM] | ED50 [6] [mg/kg] |
| --- | --- | --- | --- | --- | --- | --- | --- | --- |
| CCCN(CCC)C1CCc2cccc(O)c2C1 (centres unmarked) [8-OH DPAT, 8-hydroxy-2-dipropyl-aminotetralin] | inhibit conditioned avoidance response (CAR) more potent than that of D2 antagonist only | reverse catalepsy induced by haloperidol | – | – | – | – | – | – |
| CC(=O)N1CCc2c(sc(C)c2CCN2CCC(c3noc4cc(F)ccc34)CC2)C1 [Example 24, 6-acetyl-3-(2-(4-(6-fluoro-1,2-benzisoxazol-3-yl)piperidin-1-yl)ethyl)-4,5,6,7-tetrahydro-2-methylthieno[2,3-c]pyridine] | – | – | 0.37 | 32000 | 460 | 205 | 62 | 0.39 |
